Measured values published in patent US20210308034A1, “PREBIOTIC COMPOSITIONS AND METHODS FOR MAINTAINING A HEALTHY SKIN MICROBIOTA” (KIMBERLY-CLARK WORLDWIDE, INC., priority 2018, published 2021).

Assays:
Format in all cases: cell-based
[1] = tested on: Corynebacterium minutissimum (ATCC 23348); assay: Carbohydrate Screening Test Method (Biolog phenotype microarray), Bacteria Code A; conditions: Pathogenic; carbon microarray plate, OD 600 nm, 36 hr, 33° C.; positive = more than 0.05 OD units above zero; blank cell = not utilized
Text: (§1) After creating desired ratios of various commensal skin bacteria in a healthy skin microbiome, 188 different carbohydrate sources were screened as the next step in determining potential prospects for skin microbiota balancing agents. The screening process was set up to determine which carbohydrate sources promoted commensal and/or pathogenic bacteria as well as to obtain individual and combinations of carbohydrate sources that could serve as microbiota balancing agents that can support or maintain the healthy proportions of commensal skin bacteria of Corynebacterium, Staphylococcus, and Micrococcus. The screening was conducted utilizing Biolog phenotype microarray plates (Hayward, Calif.). Table 1 provides a coded list of the commensal and pathogenic skin bacteria that the carbohydrates were screened against.
(§2) Table 2 provides the results of screening various carbohydrate sources against the commensal and pathogenic bacteria codes listed in Table 1. The Bacteria Codes B, D, E, I, and J are commensal bacteria and are shaded in Table 2 for references purposes. The bacteria codes were each placed in a carbon microarray plate and screened through the Carbohydrate Screening Test Method, as described in the Test Methods section herein. If a particular bacteria code utilized a specific carbohydrate source as described in the Carbohydrate Screening Test Method, then the corresponding cell in Table 2 was marked with a Y (short for “Yes”). […] Many of the carbohydrate sources were utilized by both commensal and pathogenic bacteria, and as such, would not provide an advantage for selective growth of the commensal bacteria. However, some of the carbohydrate sources were only used by commensal bacteria and were identified for further testing as described herein.
(§3) The study employed 10 representative skin bacteria; Staphylococcus epidermidis ATCC 14990, Staphylococcus epidermidis M23864:W2, Staphylococcus aureus ATCC 6538, Staphylococcus aureus ATCC 25904 (Newman), Pseudomonas aeruginosa ATCC 9027, Micrococcus luteus ATCC […], Micrococcus luteus SK58, Klebsiella pneumoniae ATCC BAA-2146, Corynebacterium amycolatum SK46, and Corynebacterium minutissimum ATCC 23348. Cultures were started from freezer bead stocks by placing a single bead into 20 mL of tryptic soy broth (TSB) for all organisms except C. amycolatum SK46 and C. minutissimum ATCC 23348, which were placed into brain heart infusion (BHI) broth. Cultures were grown for about 24 hr at 37° C. except M. luteus ATCC 49732 and M. luteus SK58, which were grown at 30° C. A passage of the culture was made using a sterile swab and streaked onto two M9*2 agar plates to prepare the incubated culture for the phenotype microarray pate according to Table 4. Plates were incubated for about 24 hr at 37° C. except for M. luteus ATCC 49732 and M. luteus SK58, which were incubated at 30° C. for 24 hr.
(§4) All cultures were harvested and washed before inoculation into the carbon microarray plate (BiOLOG, Hayward Calif.), with Biolog Plates PM1 and PM2 each having a source definition of Carbon. The bacteria on the M9*2 agar was suspended via agitation with an inoculating loop in 1 mL of M9*1 media for collection in a 1.7 mL micro centrifuge tube, as noted in Table 4. The bacteria was suspended again in M9*1 media, agitated, and collected into the same 1.7 mL microcentrifuge tube used in the previous step. The tube was centrifuged for 5 minutes at 4,000×G, supernatant decanted, the pellet was resuspended in 1 mL of M9*1 media, and vortex. This washing process was repeated for a total of 4 times.
(§5) A tenfold dilution in M9*1 media was performed using 1 mL of the washed bacterial culture. Of the tenfold dilution 200 μL was placed in an untreated 96-well plate (Falcon, Pasadena Tx.) for an initial optical density (OD) reading at a wavelength of 600 nm. The OD was used to correlate to colony forming units (CFU) per milliliter by using linear regression lines for each organism. […]

[2] = tested on: Corynebacterium jeikum (ATCC 33033); assay: Carbohydrate Screening Test Method (Biolog phenotype microarray), Bacteria Code B; conditions: Commensal; carbon microarray plate, OD 600 nm, 36 hr, 33° C.; positive = more than 0.05 OD units above zero; blank cell = not utilized
How it was run: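 Strain from M9*2 agar was suspended in M9*1 medium, washed and inoculated into Biolog PM1/PM2 carbon plates. Carbohydrate use was scored yes/no, and growth rate and maximum yield were derived with GrowthRates 2.1, with max yields used for commensal ratios.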

[3] = tested on: Micrococcus luteus (SK58); assay: Carbohydrate Screening Test Method (Biolog phenotype microarray), Bacteria Code E; conditions: Commensal; carbon microarray plate, OD 600 nm, 36 hr, 33° C.; positive = more than 0.05 OD units above zero; blank cell = not utilized
How it was run: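 Each commensal strain grown in Biolog carbon phenotype microarray plates with single carbohydrate sources. Growth curves fitted with GrowthRates 2.1 to give growth rate and maximum yield. Max yields used to calculate predicted co-culture ratios between Corynebacterium, Staphylococcus and Micrococcus, compared with desired ratios of 1.3, 1.4 and 1.1.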

[4] = tested on: Staphylococcus epidermidis (ATCC 14990); assay: Carbohydrate Screening Test Method (Biolog phenotype microarray), Bacteria Code I; conditions: Commensal; carbon microarray plate, OD 600 nm, 36 hr, 33° C.; positive = more than 0.05 OD units above zero; blank cell = not utilized
Text: as §1, §2, §3, §4, §5

[5] = tested on: Staphylococcus aureus (ATCC 6538); assay: Carbohydrate Screening Test Method (Biolog phenotype microarray), Bacteria Code G; conditions: Pathogenic; carbon microarray plate, OD 600 nm, 36 hr, 33° C.; positive = more than 0.05 OD units above zero; blank cell = not utilized
Text: as §1, §2, §3, §4, §5

[6] = tested on: Klebsiella pneumoniae (ATCC BAA-2146); conditions: Pathogenic; carbon microarray plate, OD 600 nm, 36 hr, 33° C.; positive = more than 0.05 OD units above zero; blank cell = not utilized
[7] = tested on: Staphylococcus aureus (ATCC 25904) (Newman); assay: Carbohydrate Screening Test Method (Biolog phenotype microarray), Bacteria Code H; conditions: Pathogenic; carbon microarray plate, OD 600 nm, 36 hr, 33° C.; positive = more than 0.05 OD units above zero; blank cell = not utilized
Text: as §1, §2, §3, §4, §5

[8] = tested on: Pseudomonas aeruginosa (ATCC 9027); conditions: Pathogenic; carbon microarray plate, OD 600 nm, 36 hr, 33° C.; positive = more than 0.05 OD units above zero; blank cell = not utilized
How it was run: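 Carbon-source utilisation screen on Biolog PM1/PM2 plates: strain grown in TSB then on M9*2 agar, each ~24 h at 37 °C, washed four times in M9*1 and diluted tenfold. OD600 correlated to CFU/mL; each carbohydrate scored Yes when utilised.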

[9] = tested on: Staphylococcus epidermidis (M23864:W2); assay: Carbohydrate Screening Test Method (Biolog phenotype microarray), Bacteria Code J; conditions: Commensal; carbon microarray plate, OD 600 nm, 36 hr, 33° C.; positive = more than 0.05 OD units above zero; blank cell = not utilized
[10] = tested on: Micrococcus luteus (ATCC 49732); assay: Carbohydrate Screening Test Method (Biolog phenotype microarray), Bacteria Code D; conditions: Commensal; carbon microarray plate, OD 600 nm, 36 hr, 33° C.; positive = more than 0.05 OD units above zero; blank cell = not utilized
Text: as §1, §2, §3, §4, §5

C[C@H](O)C(=O)O [L-Lactic Acid]
Y: Carbohydrate Screening Results, Bacteria Code A [1] | Carbohydrate Screening Results, Bacteria Code B [2] | Carbohydrate Screening Results, Bacteria Code E [3] | Carbohydrate Screening Results, Bacteria Code I [4]

OC[C@@H](O)[C@@H](O)[C@H](O)[C@H](O)CO [D-Mannitol]
Y: Carbohydrate Screening Results, Bacteria Code B [2] | Carbohydrate Screening Results, Bacteria Code G [5] | Carbohydrate Screening Results, Bacteria Code C [6] | Carbohydrate Screening Results, Bacteria Code E [3] | Carbohydrate Screening Results, Bacteria Code H [7] | Carbohydrate Screening Results, Bacteria Code F [8]

O=C[C@@H](O)[C@@H](O)[C@H](O)[C@H](O)CO [D-Mannose]
Y: Carbohydrate Screening Results, Bacteria Code A [1] | Carbohydrate Screening Results, Bacteria Code B [2] | Carbohydrate Screening Results, Bacteria Code G [5] | Carbohydrate Screening Results, Bacteria Code C [6] | Carbohydrate Screening Results, Bacteria Code E [3] | Carbohydrate Screening Results, Bacteria Code H [7]

OC[C@H]1O[C@H](O)[C@H](O)[C@@H](O)[C@@H]1O [α-D-Glucose]
Y: Carbohydrate Screening Results, Bacteria Code A [1] | Carbohydrate Screening Results, Bacteria Code B [2] | Carbohydrate Screening Results, Bacteria Code G [5] | Carbohydrate Screening Results, Bacteria Code C [6] | Carbohydrate Screening Results, Bacteria Code E [3] | Carbohydrate Screening Results, Bacteria Code H [7] | Carbohydrate Screening Results, Bacteria Code I [4] | Carbohydrate Screening Results, Bacteria Code F [8] | Carbohydrate Screening Results, Bacteria Code J [9]

OC[C@H]1O[C@H](O[C@H]2[C@H](O)[C@@H](O)[C@H](O)O[C@@H]2CO)[C@H](O)[C@@H](O)[C@@H]1O [Maltose]
Y: Carbohydrate Screening Results, Bacteria Code B [2] | Carbohydrate Screening Results, Bacteria Code C [6] | Carbohydrate Screening Results, Bacteria Code E [3] | Carbohydrate Screening Results, Bacteria Code H [7] | Carbohydrate Screening Results, Bacteria Code I [4] | Carbohydrate Screening Results, Bacteria Code F [8] | Carbohydrate Screening Results, Bacteria Code J [9]

O=C(CO)[C@@H](O)[C@H](O)[C@H](O)COP(=O)(O)O [D-Fructose-6-Phosphate]
Y: Carbohydrate Screening Results, Bacteria Code B [2] | Carbohydrate Screening Results, Bacteria Code G [5] | Carbohydrate Screening Results, Bacteria Code E [3] | Carbohydrate Screening Results, Bacteria Code H [7] | Carbohydrate Screening Results, Bacteria Code J [9]

Maltotriose
Y: Carbohydrate Screening Results, Bacteria Code A [1] | Carbohydrate Screening Results, Bacteria Code B [2] | Carbohydrate Screening Results, Bacteria Code C [6] | Carbohydrate Screening Results, Bacteria Code E [3] | Carbohydrate Screening Results, Bacteria Code H [7] | Carbohydrate Screening Results, Bacteria Code I [4] | Carbohydrate Screening Results, Bacteria Code F [8] | Carbohydrate Screening Results, Bacteria Code J [9]

O=C(CO)[C@@H](O)[C@H](O)[C@H](O)CO [D-Fructose]
Y: Carbohydrate Screening Results, Bacteria Code A [1] | Carbohydrate Screening Results, Bacteria Code B [2] | Carbohydrate Screening Results, Bacteria Code G [5] | Carbohydrate Screening Results, Bacteria Code C [6] | Carbohydrate Screening Results, Bacteria Code E [3] | Carbohydrate Screening Results, Bacteria Code H [7] | Carbohydrate Screening Results, Bacteria Code J [9]

CO[C@@H]1O[C@H](CO)[C@@H](O)[C@H](O)[C@H]1O [β-Methyl-D-Glucoside]
Y: Carbohydrate Screening Results, Bacteria Code B [2] | Carbohydrate Screening Results, Bacteria Code C [6] | Carbohydrate Screening Results, Bacteria Code E [3] | Carbohydrate Screening Results, Bacteria Code H [7]

OC[C@H]1O[C@@H](n2cnc3c(O)ncnc32)[C@H](O)[C@@H]1O [Inosine]
Y: Carbohydrate Screening Results, Bacteria Code B [2] | Carbohydrate Screening Results, Bacteria Code C [6] | Carbohydrate Screening Results, Bacteria Code E [3] | Carbohydrate Screening Results, Bacteria Code H [7]

OC[C@H]1O[C@H](O[C@H]2O[C@H](CO)[C@@H](O)[C@H](O)[C@H]2O)[C@H](O)[C@@H](O)[C@@H]1O [D-Trehalose]
Y: Carbohydrate Screening Results, Bacteria Code B [2] | Carbohydrate Screening Results, Bacteria Code G [5] | Carbohydrate Screening Results, Bacteria Code D [10] | Carbohydrate Screening Results, Bacteria Code C [6] | Carbohydrate Screening Results, Bacteria Code E [3] | Carbohydrate Screening Results, Bacteria Code H [7] | Carbohydrate Screening Results, Bacteria Code F [8]

OC[C@H]1O[C@@](CO)(O[C@H]2O[C@H](CO)[C@@H](O)[C@H](O)[C@H]2O)[C@@H](O)[C@@H]1O [Sucrose]
Y: Carbohydrate Screening Results, Bacteria Code A [1] | Carbohydrate Screening Results, Bacteria Code B [2] | Carbohydrate Screening Results, Bacteria Code G [5] | Carbohydrate Screening Results, Bacteria Code C [6] | Carbohydrate Screening Results, Bacteria Code E [3] | Carbohydrate Screening Results, Bacteria Code F [8] | Carbohydrate Screening Results, Bacteria Code J [9]

Cc1cn([C@H]2C[C@H](O)[C@@H](CO)O2)c(=O)[nH]c1=O [Thymidine]
Y: Carbohydrate Screening Results, Bacteria Code A [1] | Carbohydrate Screening Results, Bacteria Code B [2] | Carbohydrate Screening Results, Bacteria Code E [3]

O=C[C@H](O)[C@@H](O)[C@H](O)[C@H](O)COP(=O)(O)O [D-Glucose-6-Phosphate]
Y: Carbohydrate Screening Results, Bacteria Code G [5] | Carbohydrate Screening Results, Bacteria Code C [6] | Carbohydrate Screening Results, Bacteria Code E [3] | Carbohydrate Screening Results, Bacteria Code I [4] | Carbohydrate Screening Results, Bacteria Code F [8] | Carbohydrate Screening Results, Bacteria Code J [9]
